Test results taken from patent US20090220996A1, “In vitro Assay Methods for Classifying Embryotoxicity of Compounds” (RELIANCE LIFE SCIENCES PVT LTD., priority 2007, published 2009).
Converted amounts (≈) assume the structure as drawn. Where two headings read alike, the source gives them in different places.

Tests used:
[1] = tested on: human embryoid bodies (hEB); test: Cytotoxicity in human embryoid bodies, day 15 (MTT / CyQUANT); details: for IC50: Homo sapiens
Description: (§1) In general, the presently disclosed embryotoxicity testing protocols comprise the following sequence of steps. Studies using embryoid bodies generally comprise: a) preparation of various concentrations of test solutions in culture medium or a desired solvent; b) preparation of a cell suspension by enzymatic digestion of human embryonic stem cell colonies; c) culturing the cell suspension for formation of embryoid bodies in the presence and absence of one or more test solutions, and incubation for several days (e.g., three days) in hanging drops; d) cultivation of the embryoid bodies in bacteriological petri dishes for several days (e.g., two days) under controlled conditions; e) transfer of the embryoid bodies into 96 well plates and incubation for several days (e.g., 10 days) in the presence of one or more test solutions; and f) detection of the viability of the embryoid bodies after 15 days by MTT assay, or fluorescent or luminescent method, and isolation of RNA for studying gene expression. Studies using human foreskin fibroblasts (HFF) generally comprise: a) preparation of various concentrations of test solutions in culture medium or a desired solvent; b) plating of HFF cells in 96 well plates in the presence or absence of one or more test solutions for 15 days, changing the media and test solutions every 2 days; and c) detection of the viability of HFF after 15 days by MTT assay, or fluorescent or luminescent method. Studies using human embryonic stem cells generally comprise: a) preparation of various concentrations of test solutions in culture medium or a desired solvent; b) preparation of hES colonies by manual passage in the presence and absence of one or more test solutions, and incubation for 15 days on matrigel coated plates changing the media and test solutions every 2 days; c) disruption of the colonies after 15 days with enzymes to form single cells; d) labeling of single cells with a fluorescently-labeled dye, such as propidium iodide (“PI”); and e) detection of the percentage viability with FACS as a measure of cytotoxicity.
The culturing of the cell suspension is done by dispensing about ¼ of the cell suspension along with test chemicals on the inner side of a 100 mm bacteriological petri dish. Around 50-80 drops are dispensed for each concentration, the untreated control, and the solvent control. The lid is turned carefully into its regular position and is put on top of a petri dish containing 5 ml of phosphate buffered saline (“PBS”). The “hanging drops” are incubated for three days in a humidified atmosphere with 5% CO2 at 37° C.
On day 3, 5 ml of freshly prepared test solution is added to the lid of the “hanging drops” petri dish. The embryoid bodies are carefully transferred from the lid of the “hanging drops” petri dish to a 60 mm bacteriological petri dish. The suspension is cultivated for two days in a humidified atmosphere with 5% CO2 at 37° C.
On the 5th day, the EBs are transferred into 96 well plates by placing 10 EBs in each well. About 150 μl of freshly prepared test solution is added to each well, and three wells are used for each concentration. The 96 well plates are incubated for […] in a humidified atmosphere with 5% CO2 at 37° C. The remaining EBs are plated on a 24 well plate coated with 0.2% gelatin and allowed to differentiate. Media was replaced every second day until day 15.
On the 15th day, an MTT assay is performed. MTT solution (5 mg/ml) is prepared in culture medium containing test chemical. The MTT solution is added to all wells and incubated at 37° C. in a humidified atmosphere of 5% CO2 for 4 hours, after which the MTT desorb solution (acidified isopropanol) is added to each well. The plate is shaken on a micrometer plate for 15 minutes to dissolve the formazan. The absorbance is measured at 550-570 nm in a microtiter plate reader using 630 nm as a reference wavelength.

[2] = tested on: human foreskin fibroblasts (HFF); test: Cytotoxicity in human foreskin fibroblasts, day 15 (MTT / CyQUANT); type: cell-based; details: for IC50: Homo sapiens, Fibroblast
Description: as §1
HFF were trypsinized, and a cell suspension of 1×10^4 cells/ml in routine culture medium was prepared. Using a multi-channel pipette, 50 μl volumes of the cell suspension (500 cells/well) was dispensed. Viability of the cells can be checked by staining an aliquot of the cell suspension with trypan blue. A viability of 90% is acceptable. The cells were incubated for 2 hours in a humidified atmosphere with 5% CO2 at 37° C., which allows for adherence of the cells. After 15 days of culture with medium changes (containing appropriate test compound concentrations) every 3 days, the viability of the cells was determined using the MTT test, which was detected quantitatively using a microplate ELISA reader at 570 nm with a 630 nm reference filter.
Cytotoxicity analysis of three cell types (hES, hEBs and HFF) was evaluated using the CyQUANT assay following compound treatment. All data were the mean of three independent experiments for each cell type. Data is represented as the mean±SE.
The endpoints of detection chosen in the study was inhibition of cell proliferation in human ES cells (IC50 hES), differentiating EBs (IC50 hEB), and in HFF (IC50 HFF), as evidenced in a cell viability assay using CyQuant assay.

[3] = 360 h, Table 3, mean of 3 experiments, day 15, read-out: IC50-HFF
[4] = Table 4, CyQuant cell viability assay, read-out: Human EST IC50 - HFF

SMILES | IC50 ([1]; 360 h, read-out: IC50-hEB) [µg/mL] | IC50 ([1]; read-out: IC50-hEBs) [µg/mL] | IC50 [2, 3] [µg/mL] | IC50 [2, 4] [µg/mL] | further results
COc1ccc2c(c1)c(CC(=O)O)c(C)n2C(=O)c1ccc(Cl)cc1 [Indomethacin, indomethacin] | 4.49 ± 0.84 (≈ 12.5 µM) | 4.49 (≈ 12.5 µM) | 33.5 ± 1.3 (≈ 93.6 µM) | 33.5 ± 1.3 (≈ 93.6 µM) | 
O=c1[nH]cc(F)c(=O)[nH]1 [5-Fluorouracil, 5-fluorouracil] | 0.00114 (≈ 0.00873 µM) |  | 0.11 (≈ 0.848 µM) |  | survival of hEBs until day 15 ([1]; 1 μg/ml (highest dose)): did not survive until day 15; effect on cell viability ([1]; hEBs, 0.01 μg/ml, FIG. 3A): significant effect; survival percentage ([1]; hEBs, 1 μg/ml, day 15, FIG. 3A): 7%; survival percentage ([2]; HFF, 1 μg/ml, day 15, FIG. 3A): 7%; effect on cell viability ([2]; HFF, up to 0.01 μg/ml, FIG. 3A): no major effect
Cn1c(=O)c2c(ncn2C)n(C)c1=O [Caffeine, caffeine] | 81.6 ± 5.4 (≈ 420 µM) | 81.6 (≈ 420 µM) | 79.3 ± 3.4 (≈ 408 µM) | 79.3 ± 3.4 (≈ 408 µM) | survival ([1]; hEBs, 500 μg/ml, FIG. 3B): about 10%; survival ([2]; HFF, 500 μg/ml, FIG. 3B): about 10%
CS(=O)(=O)OCCCCOS(C)(=O)=O [Busulfan, busulfan] | 0.38 ± 0.03 (≈ 1.54 µM) | 0.38 (≈ 1.54 µM) | 2.7 ± 0.2 (≈ 11 µM) | 2.7 ± 0.2 (≈ 11 µM) | cell survival ([1]; hEBs, 1 μg/ml, CyQUANT, FIG. 4E): 30%
NC(=O)NO [Hydroxyurea, hydroxyurea] | 2.33 ± 0.2 (≈ 30.6 µM) | 2.3 (≈ 30.2 µM) | 8.9 ± 0.9 (≈ 117 µM) | 8.9 ± 0.9 (≈ 117 µM) | 
CC1(C)S[C@@H]2[C@H](NC(=O)Cc3ccccc3)C(=O)N2[C@H]1C(=O)O [Penicillin G, penicillin G] |  |  |  |  | cytotoxic effects in hEBs compared to hES cells and HFF ([1]; 1000 μg/ml, FIG. 3C): more cytotoxic effects; IC50-hEBs ([1]; Table 5): 1300 µg/mL (≈ 3890 µM); cell survival ([1]; hEBs, 1000 μg/ml, CyQUANT, FIG. 4A/4B): about 60%; cell survival ([1]; hEBs, 5000 μg/ml (highest dose), FIG. 3C): 30%; cell survival ([2]; HFF, 5000 μg/ml (highest dose), FIG. 3C): 1-2%; IC50-HFF ([2]; Table 3, mean of 3 experiments, day 15): 1661 ± 23.5 µg/mL (≈ 4970 µM); Human EST IC50 - HFF ([2]; Table 4, CyQuant cell viability assay): 1661 ± 23.5 µg/mL
